Source: ChEMBL document CHEMBL1201862, “PubChem BioAssay data set” (2004)
Calls of active or inactive are those of the source.

Tests used:
[1] = target: T1, Serine/threonine-protein phosphatase (Candida dubliniensis (strain CD36 / CBS 7987 / NCPF 3949 / NRRLY-17841) (Yeast), UniProt B9W6M3); test: calcineurin pathway inhibitors in yeast reporter, dose response, S. cerevisiae, CDRE-lacZ, luminescence, secondary (AID 2388); format: functional, cell-based;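 further: yeast reporter cells carrying a calcineurin-responsive lacZ construct stimulated with calcium chloride; luminescent beta-galactosidase reporter signal in whole cells rather than isolated phosphatase activity; potency for inhibition where a drop in reporter signal means calcineurin blockade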
T1 sequence (B9W6M3 whole entry): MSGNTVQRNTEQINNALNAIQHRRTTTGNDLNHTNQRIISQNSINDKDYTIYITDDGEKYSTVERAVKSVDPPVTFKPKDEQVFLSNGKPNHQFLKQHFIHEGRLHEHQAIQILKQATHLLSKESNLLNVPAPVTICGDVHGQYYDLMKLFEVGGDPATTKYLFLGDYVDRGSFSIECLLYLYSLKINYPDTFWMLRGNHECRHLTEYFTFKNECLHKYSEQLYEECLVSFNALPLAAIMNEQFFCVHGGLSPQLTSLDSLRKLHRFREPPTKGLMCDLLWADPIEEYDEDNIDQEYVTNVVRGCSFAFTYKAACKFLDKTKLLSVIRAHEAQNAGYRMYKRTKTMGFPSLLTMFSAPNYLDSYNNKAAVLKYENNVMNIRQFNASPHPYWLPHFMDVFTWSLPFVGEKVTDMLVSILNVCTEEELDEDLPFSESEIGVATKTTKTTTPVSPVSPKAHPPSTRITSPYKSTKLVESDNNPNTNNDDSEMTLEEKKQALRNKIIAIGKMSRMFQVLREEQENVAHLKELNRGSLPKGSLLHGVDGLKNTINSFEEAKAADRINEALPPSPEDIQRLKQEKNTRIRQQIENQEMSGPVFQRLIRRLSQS

[2] = C. albicans growth with fluconazole, confirmation, fluorescence, retest (AID 2467); format: functional, cell-based
[3] = target: ATP-dependent molecular chaperone HSP82 (Candida albicans (strain WO-1) (Yeast), UniProt C4YTQ8); test: loss of DOC-induced GRE-beta-galactosidase reporter signal, dose response, Hsp90 inhibitor project, S. cerevisiae, luminescence (AID 2400); format: functional, cell-based;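 further: beta-galactosidase luminescence from glucocorticoid response element reporter as proxy for Hsp90 function; inhibitor potency where signal loss means Hsp90 inhibition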
Chain of ATP-dependent molecular chaperone HSP82 (C4YTQ8 whole entry): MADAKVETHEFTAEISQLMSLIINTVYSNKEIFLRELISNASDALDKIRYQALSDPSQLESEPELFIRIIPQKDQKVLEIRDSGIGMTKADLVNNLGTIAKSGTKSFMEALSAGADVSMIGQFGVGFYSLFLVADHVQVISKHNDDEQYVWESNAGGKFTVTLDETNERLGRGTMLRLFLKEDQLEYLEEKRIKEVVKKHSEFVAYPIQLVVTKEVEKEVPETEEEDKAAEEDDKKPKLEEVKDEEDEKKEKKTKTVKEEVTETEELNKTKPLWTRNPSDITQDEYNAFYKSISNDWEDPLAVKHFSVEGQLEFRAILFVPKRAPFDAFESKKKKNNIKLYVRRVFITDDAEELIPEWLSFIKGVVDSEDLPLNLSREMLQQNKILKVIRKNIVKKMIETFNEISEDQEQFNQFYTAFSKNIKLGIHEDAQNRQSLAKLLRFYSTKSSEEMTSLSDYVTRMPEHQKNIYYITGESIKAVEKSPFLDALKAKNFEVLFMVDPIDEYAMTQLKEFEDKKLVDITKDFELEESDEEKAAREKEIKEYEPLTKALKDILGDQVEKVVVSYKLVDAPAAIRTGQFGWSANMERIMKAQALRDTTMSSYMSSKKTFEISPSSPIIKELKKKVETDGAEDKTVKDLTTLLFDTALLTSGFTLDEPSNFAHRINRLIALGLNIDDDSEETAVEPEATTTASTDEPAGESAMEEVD

[4] = NIH-3T3 fibroblast cytotoxicity, dose response, cytotoxicity control, cell-based, fluorescence, Alamar Blue, secondary assay (AID 2327); format: functional;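 further: NIH-3T3 mouse fibroblasts cultured with fluconazole at 8 µg/mL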
[5] = target: Keap1/Nrf2 (Homo sapiens, UniProt Q14145); test: Keap1-Nrf2 protein-protein interaction inhibitors, dose response, biochemical, fluorescence polarization, cherry-picked samples (AID 588683)
Chain of Keap1/Nrf2 (Q16236 whole entry): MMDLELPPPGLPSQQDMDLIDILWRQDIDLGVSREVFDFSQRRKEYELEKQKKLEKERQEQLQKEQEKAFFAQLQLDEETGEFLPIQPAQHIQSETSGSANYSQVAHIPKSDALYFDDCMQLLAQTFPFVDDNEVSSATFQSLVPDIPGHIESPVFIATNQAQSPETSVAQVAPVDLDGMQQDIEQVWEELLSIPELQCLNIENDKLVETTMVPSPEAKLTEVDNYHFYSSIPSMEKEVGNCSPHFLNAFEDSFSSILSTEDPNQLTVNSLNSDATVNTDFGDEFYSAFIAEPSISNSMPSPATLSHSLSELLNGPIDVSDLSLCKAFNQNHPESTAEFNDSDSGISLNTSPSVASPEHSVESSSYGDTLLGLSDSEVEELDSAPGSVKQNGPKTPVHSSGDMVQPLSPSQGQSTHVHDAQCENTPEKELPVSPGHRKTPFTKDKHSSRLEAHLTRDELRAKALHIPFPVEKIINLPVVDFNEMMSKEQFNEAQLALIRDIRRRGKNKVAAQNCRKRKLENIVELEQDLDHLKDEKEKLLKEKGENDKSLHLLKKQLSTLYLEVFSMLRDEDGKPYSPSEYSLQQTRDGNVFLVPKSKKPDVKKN
Chain of Keap1/Nrf2 (Q14145 whole entry): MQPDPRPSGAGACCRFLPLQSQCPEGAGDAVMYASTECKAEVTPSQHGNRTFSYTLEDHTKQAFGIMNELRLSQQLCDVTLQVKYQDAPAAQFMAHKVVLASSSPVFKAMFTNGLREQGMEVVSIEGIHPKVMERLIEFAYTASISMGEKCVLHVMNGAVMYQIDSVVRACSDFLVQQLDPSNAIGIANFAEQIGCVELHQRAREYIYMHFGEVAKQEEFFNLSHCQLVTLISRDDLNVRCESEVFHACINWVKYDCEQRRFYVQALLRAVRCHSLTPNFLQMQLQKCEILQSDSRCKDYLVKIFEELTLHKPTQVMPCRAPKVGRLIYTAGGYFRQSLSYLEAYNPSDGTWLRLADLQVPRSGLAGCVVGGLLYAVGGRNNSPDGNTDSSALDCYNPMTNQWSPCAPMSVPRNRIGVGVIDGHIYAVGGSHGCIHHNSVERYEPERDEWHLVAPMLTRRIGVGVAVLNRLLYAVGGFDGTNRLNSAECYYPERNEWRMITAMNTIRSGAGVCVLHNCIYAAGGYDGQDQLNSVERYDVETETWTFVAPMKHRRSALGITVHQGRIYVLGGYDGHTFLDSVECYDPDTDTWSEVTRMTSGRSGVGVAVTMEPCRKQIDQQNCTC

[6] = target: T2, ORF 73 (Human herpesvirus 8, UniProt O40947); test: inhibitors of C-LANA binding to LBS DNA, dose response, biochemical, fluorescence polarization, cherry-picked samples (AID 504725); set-up: species or system Human gammaherpesvirus 8;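 further: fluorescence polarization of a labeled DNA duplex reporting LANA DNA binding; potency is for inhibitors that block LANA binding to the DNA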
T2 sequence (O40947 whole entry): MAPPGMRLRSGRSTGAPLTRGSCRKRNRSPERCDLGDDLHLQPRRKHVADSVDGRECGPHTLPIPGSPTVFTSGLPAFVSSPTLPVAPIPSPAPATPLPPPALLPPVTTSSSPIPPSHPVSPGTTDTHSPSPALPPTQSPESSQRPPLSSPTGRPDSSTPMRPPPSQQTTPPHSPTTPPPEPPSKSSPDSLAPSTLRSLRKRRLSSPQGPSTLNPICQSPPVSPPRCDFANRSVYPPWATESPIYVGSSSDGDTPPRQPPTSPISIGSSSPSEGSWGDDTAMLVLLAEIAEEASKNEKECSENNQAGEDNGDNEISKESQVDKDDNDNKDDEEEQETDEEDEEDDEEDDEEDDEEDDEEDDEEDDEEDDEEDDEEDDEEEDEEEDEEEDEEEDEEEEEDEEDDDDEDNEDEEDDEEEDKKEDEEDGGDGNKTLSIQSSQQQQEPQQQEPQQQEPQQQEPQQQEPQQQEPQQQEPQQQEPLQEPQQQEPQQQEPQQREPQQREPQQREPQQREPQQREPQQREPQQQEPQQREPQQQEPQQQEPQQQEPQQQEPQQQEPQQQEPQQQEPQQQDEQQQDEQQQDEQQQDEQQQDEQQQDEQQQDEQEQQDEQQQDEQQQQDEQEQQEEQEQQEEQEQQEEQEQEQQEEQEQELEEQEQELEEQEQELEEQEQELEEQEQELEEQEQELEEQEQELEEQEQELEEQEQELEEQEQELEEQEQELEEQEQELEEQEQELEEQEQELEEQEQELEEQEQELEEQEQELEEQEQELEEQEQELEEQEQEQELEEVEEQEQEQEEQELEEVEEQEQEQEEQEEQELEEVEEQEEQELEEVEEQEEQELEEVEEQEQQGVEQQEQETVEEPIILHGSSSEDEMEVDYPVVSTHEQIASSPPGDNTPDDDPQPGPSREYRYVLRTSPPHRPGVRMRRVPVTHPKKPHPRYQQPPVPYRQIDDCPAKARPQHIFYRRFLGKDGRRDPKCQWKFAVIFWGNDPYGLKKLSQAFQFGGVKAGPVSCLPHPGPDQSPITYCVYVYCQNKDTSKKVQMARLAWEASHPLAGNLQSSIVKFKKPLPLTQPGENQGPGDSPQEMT

[7] = target: T3, 14-3-3 protein gamma (Homo sapiens, UniProt P61981); test: modulators of 14-3-3 gamma client binding – dose response (AID 711); format: functional
T3 sequence (P61981 whole entry): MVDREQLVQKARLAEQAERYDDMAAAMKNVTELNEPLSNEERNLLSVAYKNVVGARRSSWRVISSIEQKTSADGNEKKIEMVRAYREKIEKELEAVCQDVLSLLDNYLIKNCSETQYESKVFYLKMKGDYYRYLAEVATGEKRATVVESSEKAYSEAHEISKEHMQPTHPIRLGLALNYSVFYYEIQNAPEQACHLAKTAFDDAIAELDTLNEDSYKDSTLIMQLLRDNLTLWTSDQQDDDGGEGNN

[8] = target: T4, Ubiquitin-conjugating enzyme E2 N (Homo sapiens, UniProt P61088); format: functional;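 further: Dose-response confirmation in a TR-FRET assay detecting UBC13-driven polyubiquitin chain formation, inhibition measured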
T4 sequence (P61088 whole entry): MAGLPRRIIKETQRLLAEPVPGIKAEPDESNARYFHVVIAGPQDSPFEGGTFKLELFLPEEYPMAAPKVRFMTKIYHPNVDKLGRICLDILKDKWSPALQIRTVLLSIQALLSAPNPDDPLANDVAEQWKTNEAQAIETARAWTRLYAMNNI

[9] = cells; format: functional
[10] = growth suppression of PTEN-null colon cells, dose response, cell-based, HCT116 PTEN knockout (AID 1047); format: functional;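 further: HCT116 colon tumor cells with PTEN knocked out; cells exposed to compound for 60 hours before readout; potency for loss of cell viability measured by luminescence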
[11] = THP-1 cell cytotoxicity, dose response, cytotoxicity control for non-replicating M. tuberculosis project (AID 489025); format: functional
[12] = Vero E6 cell cytotoxicity, dose response, cytotoxicity control for non-replicating M. tuberculosis project, secondary assay (AID 492998); format: functional, VeroE6; details: Vero C1008
[13] = growth suppression of beta-catenin-knockout colon cells, dose response, cell-based, HCT116, human colon tumor (AID 1045); format: functional;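 further: HCT116 colon tumor cells with beta catenin knocked out; cells exposed to compound for 60 hours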
[14] = test system: A-375; test: A375 melanoma cell viability reduction, dose response, counter-screen for MITF modulator project, cherry-pick samples, set 2 (AID 540335); format: functional, cell-based; details: Homo sapiens
[15] = test system: HEK293; test: cells; format: functional, cell-based; details: Homo sapiens
[16] = target: T5, DNA repair and recombination protein RAD54-like (Homo sapiens, UniProt Q92698); test: inhibitors of human RAD54 branch migration, confirmation, biochemical, fluorescence, cherry-picked samples, dose series (AID 651657); format: functional
T5 sequence (Q92698 whole entry): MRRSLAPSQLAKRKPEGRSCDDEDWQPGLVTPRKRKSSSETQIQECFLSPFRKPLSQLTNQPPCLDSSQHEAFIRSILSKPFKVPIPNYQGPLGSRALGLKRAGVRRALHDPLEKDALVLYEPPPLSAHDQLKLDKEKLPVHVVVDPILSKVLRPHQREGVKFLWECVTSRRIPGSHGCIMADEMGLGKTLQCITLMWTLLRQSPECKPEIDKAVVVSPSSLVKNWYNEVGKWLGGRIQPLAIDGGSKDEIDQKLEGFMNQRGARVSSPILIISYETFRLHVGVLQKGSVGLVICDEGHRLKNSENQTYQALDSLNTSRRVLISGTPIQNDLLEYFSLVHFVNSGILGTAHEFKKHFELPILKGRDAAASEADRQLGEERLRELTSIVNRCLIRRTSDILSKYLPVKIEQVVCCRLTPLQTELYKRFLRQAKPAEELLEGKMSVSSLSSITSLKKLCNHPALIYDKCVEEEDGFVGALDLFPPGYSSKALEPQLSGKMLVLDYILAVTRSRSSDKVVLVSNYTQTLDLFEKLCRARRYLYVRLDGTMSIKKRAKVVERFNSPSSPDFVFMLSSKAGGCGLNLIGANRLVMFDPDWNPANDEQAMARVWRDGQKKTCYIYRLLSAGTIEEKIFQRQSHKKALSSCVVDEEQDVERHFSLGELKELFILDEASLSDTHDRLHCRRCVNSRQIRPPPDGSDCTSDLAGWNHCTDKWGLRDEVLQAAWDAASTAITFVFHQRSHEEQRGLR

[17] = target: T6, Nuclear receptor subfamily 0 group B member 1 (Homo sapiens, UniProt P51843); test: Luminescence-based cell-based high throughput dose response assay for inhibitors of the orphan nuclear receptor subfamily 0, group B, member 1 (DAX1; NR0B1). [Related pubchem assays (depositor defined):AID504766, AID504790]; format: functional
T6 sequence (P51843 whole entry): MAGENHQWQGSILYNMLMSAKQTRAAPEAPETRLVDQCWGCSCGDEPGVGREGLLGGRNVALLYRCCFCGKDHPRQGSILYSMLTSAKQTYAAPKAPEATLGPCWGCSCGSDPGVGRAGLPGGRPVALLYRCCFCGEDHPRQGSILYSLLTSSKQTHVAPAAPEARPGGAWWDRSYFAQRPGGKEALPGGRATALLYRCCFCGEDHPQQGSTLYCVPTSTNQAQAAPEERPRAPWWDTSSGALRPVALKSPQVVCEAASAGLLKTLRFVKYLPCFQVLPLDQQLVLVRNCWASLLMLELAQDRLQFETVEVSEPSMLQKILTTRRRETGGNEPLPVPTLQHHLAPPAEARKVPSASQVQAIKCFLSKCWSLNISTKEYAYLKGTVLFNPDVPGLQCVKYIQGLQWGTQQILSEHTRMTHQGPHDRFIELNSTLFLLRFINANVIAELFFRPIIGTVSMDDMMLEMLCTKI

Cc1ccc(NC(=O)CNC(=O)c2ccc(Oc3ccccc3)cc2)nc1
EC50 [1]: > 180 µM (inactive)
EC50 [2]: 1.24 µM (active)
EC50 [3]: 21.7 µM (active)
EC50 [4]: > 150 µM (inactive)

O=C(O)c1ccccc1C1=Nc2ccc(O)cc2Oc2cc(O)ccc21
AC50 [5]: 4.97 µM (active)
AC50 [6]: 5.76 µM (active)
IC50 [7]: 5.02 µM (active)

Cc1ccc2nc(N(CCCN(C)C)C(=O)c3ccc4c(c3)CCCC4)sc2c1
IC50 [8]: > 20 µM (inactive)
IC50 [9]: 22.8 µM (active)
EC50 [10]: 15.2 µM (active)
CC50 [11]: 16.5 µM (active)
CC50 [12]: > 20 µM (active)
EC50 [13]: 12.1 µM (active)
AC50 [14]: 19.7 µM (active)

CCCN(CCC)CCCNC(=O)c1cc2c(=O)n(C)c3ccccc3c2n1C
IC50 [15]: 24.7 µM (inactive)
AC50 [16]: 36.8 µM (active)
IC50 [17]: > 67.5 µM (inactive)
